Assay results taken from US7695736B2, “Reconstitutable parenteral composition” (Pfizer Inc., priority 2001, dated 2010).

Experiments:
[1] = test system: patients requiring extraction of two ipsilateral impacted third molars; assay: placebo-controlled single-dose preemptive analgesia study, third molar extraction; type: in vivo, human
Experimental: Beginning at 30 minutes after closure of surgery, level of pain was assessed every two hours up to 24 hours, except that patients were not awakened for pain assessments. Pain was assessed by the patient on a 0-3 scale and on a chart representing a continuum from “no pain” to “worst pain”. Rescue medication was administered on demand by the patient. At the last scheduled assessment, or immediately prior to administration of rescue medication, the patient was asked to evaluate the effectiveness of the study medication to delay pain. Time to rescue medication (TRM) was analyzed using survival analysis techniques. The median time to event for each treatment group was calculated using the Kaplan-Meier product limit estimator, including the adjustment described by Miller (1981) in Survival Analysis, pp. 74-75. New York: John Wiley & Sons. Ninety five percent (95%) confidence intervals for the median time to event were calculated using the method of Simon & Lee (1982), Cancer Treat. Rep. 66, 37-42. […] Patients who dropped out for reasons other than administration of rescue medication were censored at the time they dropped out of the study.

[2] = target: COX-1 (Homo sapiens, UniProt P23219); conditions: in vitro; cited from earlier work
Sequence of COX-1 (P23219 24-599): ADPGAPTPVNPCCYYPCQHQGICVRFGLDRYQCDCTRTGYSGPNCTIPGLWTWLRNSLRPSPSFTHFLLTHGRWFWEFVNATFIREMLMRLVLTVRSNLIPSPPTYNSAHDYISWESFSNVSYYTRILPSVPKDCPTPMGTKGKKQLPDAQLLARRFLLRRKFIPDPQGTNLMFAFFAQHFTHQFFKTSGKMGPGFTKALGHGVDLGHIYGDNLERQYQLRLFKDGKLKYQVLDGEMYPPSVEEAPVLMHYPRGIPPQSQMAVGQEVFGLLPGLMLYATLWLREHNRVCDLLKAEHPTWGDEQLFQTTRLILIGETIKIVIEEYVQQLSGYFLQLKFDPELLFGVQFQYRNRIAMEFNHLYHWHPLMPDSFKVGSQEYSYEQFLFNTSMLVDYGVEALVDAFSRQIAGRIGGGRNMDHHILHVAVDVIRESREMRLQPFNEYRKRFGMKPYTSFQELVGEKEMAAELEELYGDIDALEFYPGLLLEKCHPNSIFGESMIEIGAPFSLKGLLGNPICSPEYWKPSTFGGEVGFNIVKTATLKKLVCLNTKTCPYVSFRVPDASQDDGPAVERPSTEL

[3] = human pharmacokinetic study: blood plasma concentration of valdecoxib; type: in vivo
Experimental: Subjects drank 180 ml water one, two and three hours postdose.

[4] = physchem; conditions: 20 °C, thermodynamic from solid
[5] = single preemptive intravenous dose 40 mg

## CCC(=O)NS(=O)(=O)c1ccc(-c2c(-c3ccccc3)noc2C)cc1 [Parecoxib, parecoxib]
[1]; 40 mg treatment group
  patients rating the study medication as good or excellent: 92%
[1]; each parecoxib treatment group
  patient's evaluation of effectiveness scores compared with placebo: significantly higher
[1]; parecoxib treatment groups 20, 40, 80 mg
  proportion of patients taking rescue medication compared with placebo: significantly lower
[1]; single doses 20 mg, 40 mg and 80 mg
  TRM compared with placebo: significantly longer TRM than placebo
[1]; single preemptive intravenous dose 20 mg
  Patients taking rescue medication: 78%
[1]; [5]
  Median TRM (time to rescue medication): >24 h
  Patients taking rescue medication: 48%
[1]; single preemptive intravenous dose 80 mg
  Patients taking rescue medication: 59%
[2]
  inhibitory activity against COX-1: weak in vitro inhibitory activity
[3]; human subject, parenteral
  conversion to valdecoxib after parenteral administration: rapidly and completely converted to valdecoxib

## CCC(=O)NS(=O)(=O)c1ccc(-c2c(-c3ccccc3)noc2C)cc1 [parecoxib sodium]
[4]; pH 7.3, aqueous buffer
  solubility thermodynamic: 1 mg/mL
[4]; pH 7.8, aqueous buffer
  solubility thermodynamic: 18 mg/mL
[4]; pH 8.2, aqueous buffer
  solubility thermodynamic: 220 mg/mL
[3]; human, 20 mg IV bolus vs 20 mg valdecoxib oral immediate-release tablet
  time at which maximum blood plasma concentration of valdecoxib was reached: earlier

## Cc1onc(-c2ccccc2)c1-c1ccc(S(N)(=O)=O)cc1 [valdecoxib]
[2]
  inhibitory activity against COX-1: weak inhibitor
